Values of other authors, collected in US11549199B2, “Active apparel and fabric and coverings” (priority 2017, dated 2023).

System: gram-positive and gram-negative bacteria

Poly-hexamethylene biguanide (PHMB) hydrochloride
activity against gram-positive and gram-negative bacteria: active
